The supplement of paper PMC11061612

Legend:
IGR-37 (Melanoma) [1] = experiment: combination Emax (second highest fraction inhibited in the dose matrix, 72 h); higher = more inhibition; extreme values may be limits of the assay
Outline: (§1)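 After 24 hours at 37°C and 5% CO2 in 1536-well plates, cells in DMEM/F12 or RPMI plus 10% FBS received two-drug dose matrices for 72 hours. Viability came from CellTiter-Glo 2.0 luminescence and was scaled as inhibition, anchored at 0 by vehicle wells and at 1 by blank wells. Combination Emax is taken as the second-highest inhibition in the matrix, and Bliss excess as the observed combination effect less EA + EB − EA·EB, with EA and EB the single-agent effects.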

[2] = test system: VCaP (Prostate Carcinoma); experiment: as above
Outline: as §1

[3] = test system: ECC10 (Gastric Carcinoma); experiment: as above
Outline: as §1

[4] = test system: PANC-10-05 (Pancreatic Carcinoma); experiment: as above
Outline: as §1

[5] = test system: BICR22 (Oral Cavity Carcinoma); experiment: as above
Outline: as §1

[6] = test system: NCI-H2066 (Squamous Cell Lung Carcinoma); experiment: as above
Outline: as §1

[7] = test system: ONS-76 (Other Solid Carcinomas); experiment: as above
Outline: as §1

[8] = test system: NCI-H64 (Small Cell Lung Carcinoma); experiment: as above
Outline: as §1

[9] = test system: COLO-320-HSR (Colorectal Carcinoma); experiment: as above
Outline: as §1

[10] = test system: TT (Thyroid Gland Carcinoma); experiment: as above
Outline: as §1

[11] = test system: CAPAN-2 (Pancreatic Carcinoma); experiment: as above
Outline: as §1

[12] = test system: CCK-81 (Colorectal Carcinoma); experiment: as above
Outline: as §1

U-2-OS (Osteosarcoma) [13] = experiment: as above
Outline: as §1

NY (Osteosarcoma) [14] = experiment: as above
Outline: as §1

FU97 (Gastric Carcinoma) [15] = experiment: as above
Outline: as §1

[16] = test system: NCI-H1581 (Non-Small Cell Lung Carcinoma); experiment: as above
Outline: as §1

[17] = test system: NCI-H1666 (Lung Adenocarcinoma); experiment: as above
Outline: as §1

[18] = test system: KARPAS-422 (B-Cell Non-Hodgkin's Lymphoma); experiment: as above
Outline: as §1

IGR-37 (Melanoma) [19] = experiment: Bliss excess, mean over the matrix (fraction); higher = more synergy
Outline: as §1

[20] = test system: VCaP (Prostate Carcinoma); experiment: as above
Outline: as §1

[21] = test system: ECC10 (Gastric Carcinoma); experiment: as above
Outline: as §1

[22] = test system: PANC-10-05 (Pancreatic Carcinoma); experiment: as above
Outline: as §1

[23] = test system: BICR22 (Oral Cavity Carcinoma); experiment: as above
Outline: as §1

[24] = test system: NCI-H2066 (Squamous Cell Lung Carcinoma); experiment: as above
Outline: as §1

[25] = test system: ONS-76 (Other Solid Carcinomas); experiment: as above
Outline: as §1

[26] = test system: NCI-H64 (Small Cell Lung Carcinoma); experiment: as above
Outline: as §1

[27] = test system: COLO-320-HSR (Colorectal Carcinoma); experiment: as above
Outline: as §1

[28] = test system: TT (Thyroid Gland Carcinoma); experiment: as above
Outline: as §1

[29] = test system: CAPAN-2 (Pancreatic Carcinoma); experiment: as above
Outline: as §1

[30] = test system: CCK-81 (Colorectal Carcinoma); experiment: as above
Outline: as §1

U-2-OS (Osteosarcoma) [31] = experiment: as above
Outline: as §1

NY (Osteosarcoma) [32] = experiment: as above
Outline: as §1

FU97 (Gastric Carcinoma) [33] = experiment: as above
Outline: as §1

[34] = test system: NCI-H1581 (Non-Small Cell Lung Carcinoma); experiment: as above
Outline: as §1

[35] = test system: NCI-H1666 (Lung Adenocarcinoma); experiment: as above
Outline: as §1

[36] = test system: KARPAS-422 (B-Cell Non-Hodgkin's Lymphoma); experiment: as above
Outline: as §1
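Wherever Bliss excess, mean over the matrix is given: after 72 h of two-drug dosing.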

Row | Compound | combination Emax (IGR-37 (Melanoma) [1]) | combination Emax [2] | combination Emax [3] | combination Emax [4] | combination Emax [5] | combination Emax [6] | combination Emax [7] | combination Emax [8] | combination Emax [9] | combination Emax [10] | combination Emax [11] | combination Emax [12] | combination Emax (U-2-OS (Osteosarcoma) [13]) | combination Emax (NY (Osteosarcoma) [14]) | combination Emax (FU97 (Gastric Carcinoma) [15]) | combination Emax [16] | combination Emax [17] | combination Emax [18] | Bliss excess (IGR-37 (Melanoma) [19]) | Bliss excess [20] | Bliss excess [21] | Bliss excess [22] | Bliss excess [23] | Bliss excess [24] | Bliss excess [25] | Bliss excess [26] | Bliss excess [27] | Bliss excess [28] | Bliss excess [29] | Bliss excess [30] | Bliss excess (U-2-OS (Osteosarcoma) [31]) | Bliss excess (NY (Osteosarcoma) [32]) | Bliss excess (FU97 (Gastric Carcinoma) [33]) | Bliss excess [34] | Bliss excess [35] | Bliss excess [36]
1 | Cc1nc(-c2cn3c(n2)-c2ccc(-c4cnn(C(C)(C)C(N)=O)c4)cc2OCC3)n(C(C)C)n1 [Taselisib] + O=C(Nc1ccc2[nH]nc(-c3ccncc3)c2c1)[C@@H]1CCN(CC(=O)N2CCN(c3ccc(-c4ncccn4)cc3)CC2)C1 [SCH772984] (first compound max 10 µM, 7x7, partner max 5 µM) | 0.938 | 0.587 | 1 | 0.809 | 0.966 | 0.681 | 0.976 | 0.377 | 0.419 | 0.568 | 0.521 | 0.988 | 0.993 | 0.564 | 0.404 | 0.635 | 0.881 | 0.554 | 0.0732 | -0.0098 | 0.124 | 0.0166 | 0.116 | 0.0133 | 0.0608 | 0.0028 | -0.0441 | 0.106 | 0.0241 | 0.0528 | 0.112 | 0.0687 | 0.0139 | 0.178 | 0.0878 | 0.0406
2 | CC1(C)CCC(CN2CCN(c3ccc(C(=O)NS(=O)(=O)c4ccc(NCC5CCOCC5)c([N+](=O)[O-])c4)c(Oc4cnc5[nH]ccc5c4)c3)CC2)=C(c2ccc(Cl)cc2)C1 [Venetoclax] + CS(=O)(=O)CCNCc1ccc(-c2ccc3ncnc(Nc4ccc(OCc5cccc(F)c5)c(Cl)c4)c3c2)o1 [Lapatinib] (first compound max 1 µM, 7x7, partner max 10 µM) | 0.253 | 0.109 | 0.94 | 0.353 | 0.21 | 0.352 | 0.228 | 0.21 | 0.169 | 0.121 | 0.115 | 0.892 | 0.0668 | 0.226 | 0.813 | 0.242 | 0.568 | 0.884 | 0.0223 | -0.0449 | 0.0105 | -0.0426 | -0.0287 | -0.0203 | -0.0055 | -0.0068 | -0.0048 | -0.0344 | -0.0425 | -0.0352 | -0.044 | -0.0008 | 0.0218 | -0.0136 | -0.0214 | 0.049
